Assays:
[1] = human, whole blood, iv, 9 mg/m2
[2] = Extrapolation of blood Cmax to an 80 kg human after intravenous infusion; conditions: 440 mg/M^2 one hour infusion

## COc1cc(C=CC(=O)CC(=O)C=Cc2ccc(O)c(OC)c2)ccc1O [curcumin, 1,7-bis(4-hydroxy-3-methoxyphenyl)-1,6-heptadiene-3,5-dione]
[1]
  Cmax: 3400 ng/mL
[2]
  Cmax extrapolated to humans: 160000 ng/mL

— patent US8747890B2 (priority 2009, dated 2014)
